Test results reported in ChEMBL document CHEMBL3046568, “Synthesis, antimicrobial and DNA cleavage studies of some 4-aryloxymethylcoumarins obtained by reaction of 4-bromomethylcoumarins with bidentate nucleophiles” (2012).
In brackets after ≈: the same amount, converted by molar mass. Activity calls are given as the source filed them. The rule behind the calls is not given here.

Assays:
Enterococcus faecalis = assay: Antibacterial activity against Enterococcus faecalis MTCC 3382 after 24 hr by disk diffusion method; type: functional; settings: for MIC: Enterococcus faecalis, MTCC 3382, 24 h
Aspergillus niger [1] = assay: Induction of Aspergillus niger DNA cleavage at 50 ug after 2 hr by agarose gel electrophoresis
Escherichia coli [2] = assay: Induction of Escherichia coli MTCC 1089 DNA cleavage at 50 ug after 2 hr by agarose gel electrophoresis
Staphylococcus aureus [3] = assay: Induction of Staphylococcus aureus MTCC 3160 DNA cleavage at 50 ug after 2 hr by agarose gel electrophoresis
Fusarium oxysporum = assay: Antifungal activity against Fusarium oxysporum after 3 to 4 days by serial dilution method; type: functional; settings: for MIC: Fusarium oxysporum
Mucor fuscus = assay: Antifungal activity against Mucor fuscus after 3 to 4 days by serial dilution method; type: functional; settings: for MIC: Mucor fuscus
Penicillium chrysogenum = assay: Antifungal activity against Penicillium chrysogenum after 3 to 4 days by serial dilution method; type: functional; settings: for MIC: Penicillium chrysogenum
Aspergillus niger [4] = assay: Antifungal activity against Aspergillus niger after 3 to 4 days by serial dilution method; type: functional; settings: for MIC: Aspergillus niger
Candida albicans = assay: Antifungal activity against Candida albicans after 3 to 4 days by serial dilution method; type: functional; settings: for MIC: Candida albicans
Aspergillus fumigatus = assay: Antifungal activity against Aspergillus fumigatus after 3 to 4 days by serial dilution method; type: functional; settings: for MIC: Aspergillus fumigatus
Escherichia coli [5] = assay: Antibacterial activity against Escherichia coli MTCC 1089 after 24 hr by disk diffusion method; type: functional; settings: for MIC: Escherichia coli, MTCC 1089, 24 h
Klebsiella pneumoniae = assay: Antibacterial activity against Klebsiella pneumoniae MTCC 3384 after 24 hr by disk diffusion method; type: functional; settings: for MIC: Klebsiella pneumoniae, MTCC 3384, 24 h
Pseudomonas aeruginosa = assay: Antibacterial activity against Pseudomonas aeruginosa MTCC 1034 after 24 hr by disk diffusion method; type: functional; settings: for MIC: Pseudomonas aeruginosa, MTCC 1034, 24 h
Bacillus subtilis = assay: Antibacterial activity against Bacillus subtilis MTCC 297 after 24 hr by disk diffusion method; type: functional; settings: for MIC: Bacillus subtilis, MTCC 297, 24 h
Staphylococcus aureus [6] = assay: Antibacterial activity against Staphylococcus aureus MTCC 3160 after 24 hr by disk diffusion method; type: functional; settings: for MIC: Staphylococcus aureus, MTCC 3160, 24 h

MIC (Enterococcus faecalis)	Activity (Aspergillus niger [1])	Activity (Escherichia coli [2])	Activity (Staphylococcus aureus [3])	MIC (Fusarium oxysporum)	MIC (Mucor fuscus)	MIC (Penicillium chrysogenum)	MIC (Aspergillus niger [4])	MIC (Candida albicans)	MIC (Aspergillus fumigatus)	MIC (Escherichia coli [5])	MIC (Klebsiella pneumoniae)	SMILES	inhibition zone (IZ) (Enterococcus faecalis)	inhibition zone (IZ) (Mucor fuscus)	inhibition zone (IZ) (Penicillium chrysogenum)	inhibition zone (IZ) (Aspergillus niger [4])	inhibition zone (IZ) (Candida albicans)	inhibition zone (IZ) (Aspergillus fumigatus)	inhibition zone (IZ) (Klebsiella pneumoniae)	inhibition zone (IZ) (Pseudomonas aeruginosa)	further results
25 µg/mL (≈ 77.3 µM)	inactive	inactive	inactive	50 µg/mL (≈ 155 µM)	25 µg/mL (≈ 77.3 µM)	6.25 µg/mL (≈ 19.3 µM)	6.25 µg/mL (≈ 19.3 µM)	25 µg/mL (≈ 77.3 µM)	12.5 µg/mL (≈ 38.7 µM)	25 µg/mL (≈ 77.3 µM)	12.5 µg/mL (≈ 38.7 µM)	CC(=O)Nc1cccc(OCc2cc(=O)oc3ccc(C)cc23)c1	12 mm	15 mm	19 mm	20 mm	9 mm	17 mm	12 mm	16 mm	inhibition zone (IZ) (Fusarium oxysporum): 10 mm; inhibition zone (IZ) (Escherichia coli [5]): 11 mm; MIC (Pseudomonas aeruginosa): 12.5 µg/mL (≈ 38.7 µM); inhibition zone (IZ) (Bacillus subtilis): 15 mm; MIC (Bacillus subtilis): 12.5 µg/mL (≈ 38.7 µM); inhibition zone (IZ) (Staphylococcus aureus [6]): 14 mm; MIC (Staphylococcus aureus [6]): 12.5 µg/mL (≈ 38.7 µM)
25 µg/mL (≈ 69.6 µM)	inactive	inactive	inactive	50 µg/mL (≈ 139 µM)	12.5 µg/mL (≈ 34.8 µM)	12.5 µg/mL (≈ 34.8 µM)	6.25 µg/mL (≈ 17.4 µM)	12.5 µg/mL (≈ 34.8 µM)	12.5 µg/mL (≈ 34.8 µM)	25 µg/mL (≈ 69.6 µM)	12.5 µg/mL (≈ 34.8 µM)	CC(=O)Nc1cccc(OCc2cc(=O)oc3c2ccc2ccccc23)c1	12 mm	16 mm	18 mm	19 mm	16 mm	17 mm	15 mm	19 mm	inhibition zone (IZ) (Fusarium oxysporum): 11 mm; inhibition zone (IZ) (Escherichia coli [5]): 13 mm; MIC (Pseudomonas aeruginosa): 6.25 µg/mL (≈ 17.4 µM); inhibition zone (IZ) (Bacillus subtilis): 13 mm; MIC (Bacillus subtilis): 12.5 µg/mL (≈ 34.8 µM); inhibition zone (IZ) (Staphylococcus aureus [6]): 12 mm; MIC (Staphylococcus aureus [6]): 25 µg/mL (≈ 69.6 µM)
12.5 µg/mL (≈ 44.3 µM)	inactive	inactive	inactive	50 µg/mL (≈ 177 µM)	25 µg/mL (≈ 88.6 µM)	12.5 µg/mL (≈ 44.3 µM)	6.25 µg/mL (≈ 22.1 µM)	25 µg/mL (≈ 88.6 µM)	12.5 µg/mL (≈ 44.3 µM)	50 µg/mL (≈ 177 µM)	12.5 µg/mL (≈ 44.3 µM)	Cc1ccc2oc(=O)cc(COc3cccc(O)c3)c2c1	15 mm	14 mm	18 mm	19 mm	10 mm	16 mm	13 mm	14 mm	inhibition zone (IZ) (Fusarium oxysporum): 8 mm; inhibition zone (IZ) (Escherichia coli [5]): 8 mm; MIC (Pseudomonas aeruginosa): 25 µg/mL (≈ 88.6 µM); inhibition zone (IZ) (Bacillus subtilis): 15 mm; MIC (Bacillus subtilis): 12.5 µg/mL (≈ 44.3 µM); inhibition zone (IZ) (Staphylococcus aureus [6]): 13 mm; MIC (Staphylococcus aureus [6]): 12.5 µg/mL (≈ 44.3 µM)

The remaining lines, values behind:

SMILES	MIC (Enterococcus faecalis)	Activity (Aspergillus niger [1])	Activity (Escherichia coli [2])	Activity (Staphylococcus aureus [3])	MIC (Fusarium oxysporum)	MIC (Mucor fuscus)	MIC (Penicillium chrysogenum)	MIC (Aspergillus niger [4])	MIC (Candida albicans)	MIC (Aspergillus fumigatus)	MIC (Escherichia coli [5])	MIC (Klebsiella pneumoniae)	inhibition zone (IZ) (Enterococcus faecalis)	inhibition zone (IZ) (Mucor fuscus)	inhibition zone (IZ) (Penicillium chrysogenum)	inhibition zone (IZ) (Aspergillus niger [4])	inhibition zone (IZ) (Candida albicans)	inhibition zone (IZ) (Aspergillus fumigatus)	inhibition zone (IZ) (Klebsiella pneumoniae)	inhibition zone (IZ) (Pseudomonas aeruginosa)	further results
O=c1cc(COc2cccc(OCc3cc(=O)oc4c3ccc3ccccc34)c2)c2ccc3ccccc3c2o1	25 µg/mL (≈ 47.5 µM)	inactive	inactive	inactive	25 µg/mL (≈ 47.5 µM)	25 µg/mL (≈ 47.5 µM)	25 µg/mL (≈ 47.5 µM)	12.5 µg/mL (≈ 23.7 µM)	12.5 µg/mL (≈ 23.7 µM)	12.5 µg/mL (≈ 23.7 µM)	25 µg/mL (≈ 47.5 µM)	6.25 µg/mL (≈ 11.9 µM)	12 mm	14 mm	14 mm	15 mm	13 mm	15 mm	16 mm	17 mm	inhibition zone (IZ) (Fusarium oxysporum): 14 mm; inhibition zone (IZ) (Escherichia coli [5]): 12 mm; MIC (Pseudomonas aeruginosa): 12.5 µg/mL (≈ 23.7 µM); inhibition zone (IZ) (Bacillus subtilis): 11 mm; MIC (Bacillus subtilis): 25 µg/mL (≈ 47.5 µM); inhibition zone (IZ) (Staphylococcus aureus [6]): 11 mm; MIC (Staphylococcus aureus [6]): 25 µg/mL (≈ 47.5 µM)
CCN(CC)c1cccc(OCc2cc(=O)oc3ccc(Br)cc23)c1	6.25 µg/mL (≈ 15.5 µM)	Active	Active	Active	25 µg/mL (≈ 62.1 µM)	12.5 µg/mL (≈ 31.1 µM)	6.25 µg/mL (≈ 15.5 µM)	6.25 µg/mL (≈ 15.5 µM)	12.5 µg/mL (≈ 31.1 µM)	6.25 µg/mL (≈ 15.5 µM)	12.5 µg/mL (≈ 31.1 µM)	6.25 µg/mL (≈ 15.5 µM)	19 mm	18 mm	21 mm	20 mm	16 mm	20 mm	18 mm	23 mm	inhibition zone (IZ) (Fusarium oxysporum): 14 mm; inhibition zone (IZ) (Escherichia coli [5]): 15 mm; MIC (Pseudomonas aeruginosa): 6.25 µg/mL (≈ 15.5 µM); inhibition zone (IZ) (Bacillus subtilis): 17 mm; MIC (Bacillus subtilis): 6.25 µg/mL (≈ 15.5 µM); inhibition zone (IZ) (Staphylococcus aureus [6]): 18 mm; MIC (Staphylococcus aureus [6]): 6.25 µg/mL (≈ 15.5 µM)
O=c1cc(COc2cccc(O)c2)c2c(ccc3ccccc32)o1	12.5 µg/mL (≈ 39.3 µM)	inactive	inactive	inactive	25 µg/mL (≈ 78.5 µM)	25 µg/mL (≈ 78.5 µM)	25 µg/mL (≈ 78.5 µM)	12.5 µg/mL (≈ 39.3 µM)	12.5 µg/mL (≈ 39.3 µM)	12.5 µg/mL (≈ 39.3 µM)	25 µg/mL (≈ 78.5 µM)	12.5 µg/mL (≈ 39.3 µM)	14 mm	13 mm	16 mm	17 mm	14 mm	15 mm	15 mm	18 mm	inhibition zone (IZ) (Fusarium oxysporum): 12 mm; inhibition zone (IZ) (Escherichia coli [5]): 12 mm; MIC (Pseudomonas aeruginosa): 12.5 µg/mL (≈ 39.3 µM); inhibition zone (IZ) (Bacillus subtilis): 12 mm; MIC (Bacillus subtilis): 25 µg/mL (≈ 78.5 µM); inhibition zone (IZ) (Staphylococcus aureus [6]): 11 mm; MIC (Staphylococcus aureus [6]): 25 µg/mL (≈ 78.5 µM)
Cc1ccc2oc(=O)cc(COc3cccc(OCc4cc(=O)oc5ccc(C)cc45)c3)c2c1	12.5 µg/mL (≈ 27.5 µM)	inactive	inactive	inactive	> 100 µg/mL	12.5 µg/mL (≈ 27.5 µM)	25 µg/mL (≈ 55 µM)	12.5 µg/mL (≈ 27.5 µM)	25 µg/mL (≈ 55 µM)	12.5 µg/mL (≈ 27.5 µM)	> 100 µg/mL	12.5 µg/mL (≈ 27.5 µM)	16 mm	16 mm	16 mm	17 mm	9 mm	17 mm	12 mm	13 mm	MIC (Pseudomonas aeruginosa): 25 µg/mL (≈ 55 µM); inhibition zone (IZ) (Bacillus subtilis): 14 mm; MIC (Bacillus subtilis): 12.5 µg/mL (≈ 27.5 µM); inhibition zone (IZ) (Staphylococcus aureus [6]): 14 mm; MIC (Staphylococcus aureus [6]): 12.5 µg/mL (≈ 27.5 µM)
CCN(CC)c1cccc(OCc2cc(=O)oc3ccc4ccccc4c23)c1	12.5 µg/mL (≈ 33.5 µM)	inactive	inactive	inactive	25 µg/mL (≈ 66.9 µM)	25 µg/mL (≈ 66.9 µM)	12.5 µg/mL (≈ 33.5 µM)	12.5 µg/mL (≈ 33.5 µM)	12.5 µg/mL (≈ 33.5 µM)	12.5 µg/mL (≈ 33.5 µM)	12.5 µg/mL (≈ 33.5 µM)	12.5 µg/mL (≈ 33.5 µM)	14 mm	14 mm	17 mm	17 mm	13 mm	14 mm	15 mm	17 mm	inhibition zone (IZ) (Fusarium oxysporum): 14 mm; inhibition zone (IZ) (Escherichia coli [5]): 14 mm; MIC (Pseudomonas aeruginosa): 12.5 µg/mL (≈ 33.5 µM); inhibition zone (IZ) (Bacillus subtilis): 11 mm; MIC (Bacillus subtilis): 25 µg/mL (≈ 66.9 µM); inhibition zone (IZ) (Staphylococcus aureus [6]): 13 mm; MIC (Staphylococcus aureus [6]): 12.5 µg/mL (≈ 33.5 µM)
